# Data reported in PubChem BioAssay AID1918947 (Molecular Pharmacology Branch, DTP, NCI, 2023).
# Several values for one entry are separate records, joined by “and”; a condition that tells them apart may be missing. Equal entries are not always repeated.
# System: A498 complex spheroid viability
# Test: Anticancer human tumor A498 cell line growth inhibition;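 further: spheroids exposed to agents for seven days before readout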;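 on viability, T/C: 100% = DMSO vehicle-treated spheroids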
# Settings: for viability, T/C: stronger effect = lower value
# Source text: Multicellular complex tumor spheroid response to LSD1 Inhibitor Iadademstat in combination with a variety of drugs and investigational agents in selected tumor cell lines
# The current study was undertaken to assess response to LSD1 inhibitors in combination with standard-of-care drugs and investigational agents in solid tumor complex spheroid models as well as in the K-562 leukemia. Complex spheroids include a stromal component modeled by human endothelial cells (HUVEC) and fibroblasts modeled by human mesenchymal stem cells (MSCs). The concentration ranges selected for each drug and investigational agent were based upon clinically achievable concentrations if the clinical Cmax of the agent was known.
# Compounds. The drugs and investigational agents used in this study are listed on Table 1. All of the agents used, including staurosporine (NSC755774) and gemcitabine (NSC613327), were obtained from the Developmental Therapeutics Program, NCI. FDA-approved anticancer drugs are available from the NCI at http://dtp.nci.nih.gov/branches/dscb/oncology_drugset_explanation.html. Drugs and investigational agents were >95% pure by proton nuclear magnetic resonance (NMR) and liquid chromatography/mass spectrometry (LC/MS). Stock solutions were prepared at 400x in DMSO, stored at -70 degrees C, and diluted in fresh medium prior to their use. The final concentration of DMSO in cell culture wells never exceeded 0.25% (v/v). The FDA-approved anticancer drug set is available from the Developmental Therapeutics Program at https://dtp.cancer.gov/organization/dscb/obtaining/available_plates.htm. All drugs and investigational agents were tested over a range starting from a high concentration at or near the clinical Cmax and decreasing in half-log increments. If the clinical Cmax for an agent had not been determined, the highest concentration tested was 10 microM.
# Cell Lines. The patient-derived cancer cell (PDC) lines: 292921-168-R-J2-PDC, K24384-001-R-PDC, and 521955-158-R2-J5-PDC pancreatic carcinomas, 556581-035-R-J1 ovarian carcinoma, 324938-238-R-J1-PDC, 855422-203-R-J1-PDC and 883617-216-R-J1-PDC urothelial bladder carcinomas, 743489-274-T-PDC renal cell carcinoma, 138582-R-J1 Merkel cell tumor, K60290-347-R-J1 and K57222-313-R-J1-PDC glioblastomas, 653999-131-R-J2-PDC, LG0703-F948-PDC, and 349418-098-R-PDC non-small cell lung carcinomas, 885512-296-R-J2-PDC, 171881-019-R-J1-PDC breast carcinomas and 186277-243-T-J2-PDC and 233499-124-R-J2-PDC colon carcinomas were obtained from the NCI Patient-Derived Models Repository (PDMR, https://pdmr.cancer.gov). The established cell lines NCI/ADR-RES (RRID:CVCL_14520 and OVCAR-5 (RRID:CVCL_1628) ovarian carcinomas, 786-O (RRID:CVCL_1051) and A498 (RRID:CVCL_A498) renal cell carcinoma, NCI-H211 (ATCC, cat. CRL-5824; RRID:CVCL_1529), NCI-H196 (ATCC, cat. CRL-5823, RRID:CVCL_1509), SW 1271 (ATCC, cat. CRL-2177, RRID:CVCL_1716) and NCI-H1876 (ATCC, cat. CRL-5902, RRID:CVCL_1503) small cell lung carcinomas, MDA-MB-231 (RRID:CVCL_0062) and MDA-MB-468 (RRID:CVCL_0419)breast carcinomas (10-12). Pooled donor human umbilical vein endothelial cells (HUVEC, Lonza, cat. CC-2519) and human mesenchymal stem cells (hMSC, Lonza, cat. PT-2501) were purchased from Lonza (Walkersville, MD).
# Cell Culture. All cells were maintained in an incubator at 37 degrees C and 5% CO2 with 95% humidity. The PDC lines were cultured according to standard operating procedures established by the NCI PDMR (https://pdmr.cancer.gov). Briefly all PDCs were thawed and cultured in Matrigel-coated flasks prepared with a working solution of 1X Ham's F-12 nutrient mix, without supplementation (Invitrogen, Waltham, MA, cat. 11765054), 100 U/mL penicillin-streptomycin (Invitrogen, cat. 15140122), and 2.5% Matrigel (Corning Inc., Corning, NY, cat. 354248) for the first three passages. […]
# [1] = curve of first compound, second compound 0.1 µM
# [2] = curve of first compound, second compound 0.316 µM
# [3] = curve of first compound, second compound 1 µM
# [4] = curve of first compound, second compound 3.16 µM
# [5] = curve of first compound, second compound 10 µM
# [6] = second compound 0.1 µM, first compound 0.00949 µM
# [7] = second compound 0.1 µM, first compound 0.03 µM
# [8] = second compound 0.1 µM, first compound 0.0949 µM
# [9] = second compound 0.1 µM, first compound 0.3 µM
# [10] = second compound 0.316 µM, first compound 0.00949 µM
# [11] = second compound 0.316 µM, first compound 0.03 µM
# [12] = second compound 0.316 µM, first compound 0.0949 µM
# [13] = second compound 0.316 µM, first compound 0.3 µM
# [14] = second compound 1 µM, first compound 0.00949 µM
# [15] = second compound 1 µM, first compound 0.03 µM
# [16] = second compound 1 µM, first compound 0.0949 µM
# [17] = second compound 1 µM, first compound 0.3 µM
# [18] = second compound 3.16 µM, first compound 0.00949 µM
# [19] = second compound 3.16 µM, first compound 0.03 µM
# [20] = second compound 3.16 µM, first compound 0.0949 µM
# [21] = second compound 3.16 µM, first compound 0.3 µM
# [22] = second compound 10 µM, first compound 0.00949 µM
# [23] = second compound 10 µM, first compound 0.03 µM
# [24] = second compound 10 µM, first compound 0.0949 µM
# [25] = second compound 10 µM, first compound 0.3 µM
smiles,measurement,setting,value
CCN(c1cc(-c2ccc(CN3CCOCC3)cc2)cc(C(=O)NCc2c(C)cc(C)[nH]c2=O)c1C)C1CCOCC1 + NC1CC1c1ccc(-c2cccc(O)c2)cc1,IC50,[1],> 3000 nM
same,IC50,[2],> 3000 nM
same,IC50,[3],> 3000 nM
same,IC50,[4],> 3000 nM
same,IC50,[5],> 3000 nM
same,"viability, T/C",[6],98.8%
same,"viability, T/C",[7],112%
same,"viability, T/C",[8],98.9%
same,"viability, T/C",[9],95.1%
same,"viability, T/C","second compound 0.1 µM, first compound 0.949 µM",103%
same,"viability, T/C","second compound 0.1 µM, first compound 3 µM",96.7%
same,"viability, T/C",[10],108%
same,"viability, T/C",[11],106%
same,"viability, T/C",[12],108%
same,"viability, T/C",[13],107%
same,"viability, T/C","second compound 0.316 µM, first compound 0.949 µM",101%
same,"viability, T/C","second compound 0.316 µM, first compound 3 µM",104%
same,"viability, T/C",[14],100%
same,"viability, T/C",[15],107%
same,"viability, T/C",[16],97.6%
same,"viability, T/C",[17],94.7%
same,"viability, T/C","second compound 1 µM, first compound 0.949 µM",98.4%
same,"viability, T/C","second compound 1 µM, first compound 3 µM",95.1%
same,"viability, T/C",[18],94%
same,"viability, T/C",[19],92.6%
same,"viability, T/C",[20],89%
same,"viability, T/C",[21],90.1%
same,"viability, T/C","second compound 3.16 µM, first compound 0.949 µM",93.8%
same,"viability, T/C","second compound 3.16 µM, first compound 3 µM",100%
same,"viability, T/C",[22],96.6%
same,"viability, T/C",[23],97.2%
same,"viability, T/C",[24],94.9%
same,"viability, T/C",[25],93.1%
same,"viability, T/C","second compound 10 µM, first compound 0.949 µM",90.6%
same,"viability, T/C","second compound 10 µM, first compound 3 µM",91%
COc1cc(Nc2ncc3c(n2)-c2ccc(Cl)cc2C(c2c(F)cccc2OC)=NC3)ccc1C(=O)O,"viability, T/C",compound 0.00316 µM,95.5% and 94.2%
same,"viability, T/C",compound 0.01 µM,84.6% and 64.9%
same,"viability, T/C",compound 0.0316 µM,76.9% and 71.9%
same,"viability, T/C",compound 0.1 µM,66.4% and 62.6%
same,"viability, T/C",compound 0.316 µM,60% and 54.1%
same,"viability, T/C",compound 1 µM,50.4% and 40.4%
same,IC50,curve of compound,> 1000 nM and 381 nM
CC(C)c1c(-c2ccccc2)nc2c(C#N)c[nH]n2c1=O + NC1CCC(NC2CC2c2ccccc2)CC1,IC50,[1],> 10000 nM
same,IC50,[2],> 10000 nM
same,IC50,[3],> 10000 nM
same,IC50,[4],> 10000 nM
same,IC50,[5],> 10000 nM
same,"viability, T/C","second compound 0.1 µM, first compound 0.0316 µM",88.3%
same,"viability, T/C","second compound 0.1 µM, first compound 0.1 µM",87.8%
same,"viability, T/C","second compound 0.1 µM, first compound 0.316 µM",89.3%
same,"viability, T/C","second compound 0.1 µM, first compound 1 µM",87.3%
same,"viability, T/C","second compound 0.1 µM, first compound 3.16 µM",91.3%
same,"viability, T/C","second compound 0.1 µM, first compound 10 µM",86.5%
same,"viability, T/C","second compound 0.316 µM, first compound 0.0316 µM",84%
same,"viability, T/C","second compound 0.316 µM, first compound 0.1 µM",85.8%
same,"viability, T/C","second compound 0.316 µM, first compound 0.316 µM",87%
same,"viability, T/C","second compound 0.316 µM, first compound 1 µM",87.8%
same,"viability, T/C","second compound 0.316 µM, first compound 3.16 µM",82.7%
same,"viability, T/C","second compound 0.316 µM, first compound 10 µM",85%
same,"viability, T/C","second compound 1 µM, first compound 0.0316 µM",88.8%
same,"viability, T/C","second compound 1 µM, first compound 0.1 µM",86.4%
same,"viability, T/C","second compound 1 µM, first compound 0.316 µM",89.2%
same,"viability, T/C","second compound 1 µM, first compound 1 µM",88.2%
same,"viability, T/C","second compound 1 µM, first compound 3.16 µM",86%
same,"viability, T/C","second compound 1 µM, first compound 10 µM",86.9%
same,"viability, T/C","second compound 3.16 µM, first compound 0.0316 µM",84%
same,"viability, T/C","second compound 3.16 µM, first compound 0.1 µM",79.9%
same,"viability, T/C","second compound 3.16 µM, first compound 0.316 µM",82.3%
same,"viability, T/C","second compound 3.16 µM, first compound 1 µM",87.6%
same,"viability, T/C","second compound 3.16 µM, first compound 3.16 µM",83.8%
same,"viability, T/C","second compound 3.16 µM, first compound 10 µM",82.4%
same,"viability, T/C","second compound 10 µM, first compound 0.0316 µM",64%
same,"viability, T/C","second compound 10 µM, first compound 0.1 µM",69.3%
same,"viability, T/C","second compound 10 µM, first compound 0.316 µM",66.3%
same,"viability, T/C","second compound 10 µM, first compound 1 µM",69.6%
same,"viability, T/C","second compound 10 µM, first compound 3.16 µM",66.4%
same,"viability, T/C","second compound 10 µM, first compound 10 µM",69.5%
Nc1ncn(C2CC(O)C(CO)S2)c(=O)n1 (configuration not stated) + NC1CC1c1ccc(-c2cccc(O)c2)cc1,IC50,[1],255 nM
same,IC50,[2],254 nM
same,IC50,[3],257 nM
same,IC50,[4],236 nM
same,IC50,[5],259 nM
same,"viability, T/C","second compound 0.1 µM, first compound 0.000949 µM",110%
same,"viability, T/C","second compound 0.1 µM, first compound 0.003 µM",116%
same,"viability, T/C",[6],115%
same,"viability, T/C",[7],95.4%
same,"viability, T/C",[8],74.7%
same,"viability, T/C",[9],45.9%
same,"viability, T/C","second compound 0.316 µM, first compound 0.000949 µM",114%
same,"viability, T/C","second compound 0.316 µM, first compound 0.003 µM",121%
same,"viability, T/C",[10],116%
same,"viability, T/C",[11],104%
same,"viability, T/C",[12],81.9%
same,"viability, T/C",[13],44.6%
same,"viability, T/C","second compound 1 µM, first compound 0.000949 µM",118%
same,"viability, T/C","second compound 1 µM, first compound 0.003 µM",123%
same,"viability, T/C",[14],119%
same,"viability, T/C",[15],105%
same,"viability, T/C",[16],81.8%
same,"viability, T/C",[17],44.8%
same,"viability, T/C","second compound 3.16 µM, first compound 0.000949 µM",114%
same,"viability, T/C","second compound 3.16 µM, first compound 0.003 µM",106%
same,"viability, T/C",[18],125%
same,"viability, T/C",[19],109%
same,"viability, T/C",[20],78.7%
same,"viability, T/C",[21],42.5%
same,"viability, T/C","second compound 10 µM, first compound 0.000949 µM",104%
same,"viability, T/C","second compound 10 µM, first compound 0.003 µM",110%
same,"viability, T/C",[22],118%
same,"viability, T/C",[23],105%
same,"viability, T/C",[24],87.9%
same,"viability, T/C",[25],44.5%
